19 molecules from patent publication US9120749B2, “Quinoline derivatives and MELK inhibitors containing the same” (ONCOTHERAPY SCIENCE, INC., priority 2010, dated 2015) can be followed below.

Experiment [1] deals with MELK (Homo sapiens, UniProt Q14680). Briefly: Kinase assay: MELK activity, phosphorylation of FITC-labeled histone H3 peptide measured by IMAP fluorescence polarization. It counts as biochemical. Conditions: read-out: IC50 (μM) (kinase assay). In outline:
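A FITC-labelled histone H3 peptide served as substrate, with compounds serially diluted to 1% DMSO final. Reactions were stopped with three volumes of IMAP progressive binding solution. After 0.5 h at room temperature, fluorescence polarization was read.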
In general terms: Fluorescence polarisation rises when a labelled molecule tumbles more slowly, as on binding a larger partner.

Experiment [2] deals with T47D cells. The experiment in a line: Cell-based assay: anti-proliferative activity, Cell Counting Kit-8, 72 hours (T47D). In outline: (§1)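 T47D, A549 and BT-549 cells, with MELK-negative HT-1197 as control (MELK status checked by western blot), seeded at 2,000–3,000 cells/well. Growth measured by CCK-8 72 hours after inhibitor exposure; IC50 values calculated.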
On the technique in general: Tetrazolium assays rely on reduction of a dye to a coloured formazan, in cell work by metabolically active cells.

The test system of experiment [3] is A549 cells. Briefly: Cell-based assay: anti-proliferative activity, Cell Counting Kit-8, 72 hours (A549). Conditions: 72 hours. In outline: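 A549 cells were seeded in 96-well plates and exposed to candidate inhibitors for 72 hours. Cell growth was then measured with Cell Counting Kit-8, and IC50 values were calculated from the resulting growth data.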
Experiment [4] has as its system HT-1197 cells. Briefly: Cell-based assay: anti-proliferative activity, Cell Counting Kit-8, 72 hours (HT-1197, negative control without MELK expression). Conditions: HT1197 cells (negative control), 72 hours. The procedure, abridged:
as §1

Experiment [5] has as its system DU4475 cells. Briefly: Cell-based assay: anti-proliferative activity, Cell Counting Kit-8, 72 hours (DU4475).

Where a name gives a salt, the structure may show the parent alone. Read-outs that look alike come from different tables or passages of the source.

Chain of MELK (Q14680 whole entry, looked up): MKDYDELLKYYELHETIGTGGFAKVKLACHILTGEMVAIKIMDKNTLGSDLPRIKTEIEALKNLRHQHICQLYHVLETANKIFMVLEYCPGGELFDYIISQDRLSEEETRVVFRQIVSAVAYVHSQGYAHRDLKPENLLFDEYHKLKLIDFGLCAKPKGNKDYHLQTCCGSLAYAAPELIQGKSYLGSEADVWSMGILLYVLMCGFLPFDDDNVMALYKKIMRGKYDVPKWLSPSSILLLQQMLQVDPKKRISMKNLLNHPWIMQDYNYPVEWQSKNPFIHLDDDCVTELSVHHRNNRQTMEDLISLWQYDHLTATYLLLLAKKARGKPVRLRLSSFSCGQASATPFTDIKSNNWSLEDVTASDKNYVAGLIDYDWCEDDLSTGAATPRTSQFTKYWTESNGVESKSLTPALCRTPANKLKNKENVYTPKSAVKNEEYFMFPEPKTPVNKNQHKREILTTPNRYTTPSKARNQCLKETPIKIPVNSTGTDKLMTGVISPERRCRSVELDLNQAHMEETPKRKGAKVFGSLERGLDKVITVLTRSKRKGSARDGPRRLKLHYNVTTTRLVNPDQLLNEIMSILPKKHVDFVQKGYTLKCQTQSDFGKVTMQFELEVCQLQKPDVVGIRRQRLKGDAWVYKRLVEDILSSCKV

Turning to `Nc1ccc(Nc2c(C(=O)C3CC3)cnc3ccc(-c4cc(F)c(O)c(Cl)c4)cc23)cn1` [Example 591, (4-(6-aminopyridin-3-ylamino)-6-(3-chloro-5-fluoro-4-hydroxyphenyl)quinolin-3-yl)(cyclopropyl)methanone], the IC50 – broadly, the midpoint of a concentration-inhibition curve – came out at 0.032 µM in experiment [1]; 0.26 µM in experiment [2] (Homo sapiens, T47D, 72 h); 0.36 µM in experiment [3] (Homo sapiens, A549, 72 h); 1.4 µM in experiment [4] (Homo sapiens, HT1197, 72 h); 0.12 µM in experiment [5] (Homo sapiens, DU-4475, 72 h).

Take `COc1cc(-c2ccc3ncc(C(=O)C4CC4)c(C4=CCN(C(=O)CN(C)C)CC4)c3c2)cc(Cl)c1O` [Example 521, 1-(4-(6-(3-chloro-4-hydroxy-5-methoxyphenyl)-3-(cyclopropanecarbonyl)quinolin-4-yl)-5,6-dihydropyridin-1(2H)-yl)-2-(dimethylamino)ethanone]: the IC50 in experiment [1] was determined as 0.0024 µM; in experiment [2] (Homo sapiens, T47D, 72 h), 0.22 µM; in experiment [3] (Homo sapiens, A549, 72 h) it was 0.18 µM; in experiment [4] (Homo sapiens, HT1197, 72 h), 1.5 µM; in experiment [5] (Homo sapiens, DU-4475, 72 h) it was 0.27 µM.

Regarding `NC1CCCN(c2ncc(Nc3c(C(=O)C4CC4)cnc4ccc(-c5cc(Cl)c(O)c(Cl)c5)cc34)cn2)C1` (centres unmarked) [Example 628, (4-(2-(3-aminopiperidin-1-yl)pyrimidin-5-ylamino)-6-(3,5-dichloro-4-hydroxyphenyl)quinolin-3-yl)(cyclopropyl)methanone], the half-inhibitory concentration (IC50) is 0.0015 µM in experiment [1]; 0.0069 µM in experiment [2] (Homo sapiens, T47D, 72 h); 0.019 µM in experiment [3] (Homo sapiens, A549, 72 h); 0.33 µM in experiment [4] (Homo sapiens, HT1197, 72 h); 0.0056 µM in experiment [5] (Homo sapiens, DU-4475, 72 h).

Regarding `C=CCN(CC=C)C1(C)CCC(Nc2c(C(=O)C3CC3)cnc3ccc(-c4cc(Cl)c(O)c(Cl)c4)cc23)CC1` (centres unmarked) [Example 583, Cyclopropyl{4-[4-(diallylamino)-4-methylcyclohexylamino]-6-(3,5-dichloro-4-hydroxyphenyl)quinolin-3-yl}methanone], the IC50 in experiment [1] is 0.089 µM; in experiment [2] (Homo sapiens, T47D, 72 h) it was 2.6 µM; in experiment [3] (Homo sapiens, A549, 72 h), 3.1 µM; in experiment [4] (Homo sapiens, HT1197, 72 h), 10 µM; in experiment [5] (Homo sapiens, DU-4475, 72 h), 2.3 µM.

`CC(=O)c1cnc2ccc(-c3cc(Cl)c(O)c(Cl)c3)cc2c1Nc1ccc(C(N)=O)cc1` [Example 545, 4-(3-acetyl-6-(3,5-dichloro-4-hydroxyphenyl)quinolin-4-ylamino)benzamide]: the IC50 in experiment [1] is 0.019 µM; in experiment [2] (Homo sapiens, T47D, 72 h), 0.62 µM; in experiment [3] (Homo sapiens, A549, 72 h), 3.9 µM; in experiment [4] (Homo sapiens, HT1197, 72 h) it was 16 µM; in experiment [5] (Homo sapiens, DU-4475, 72 h) it was 0.56 µM.

`CN1CCC(n2cc(Nc3c(C(=O)C4CC4)cnc4ccc(-c5cc(Cl)c(O)c(Cl)c5)cc34)cn2)CC1` [Example 593, Cyclopropyl(6-(3,5-dichloro-4-hydroxyphenyl)-4-(1-(1-methylpiperidin-4-yl)-1H-pyrazol-4-ylamino)quinolin-3-yl)methanone]: the IC50 in experiment [1] was determined as 0.0013 µM; in experiment [2] (Homo sapiens, T47D, 72 h), 0.32 µM; in experiment [3] (Homo sapiens, A549, 72 h) it was 0.094 µM; in experiment [4] (Homo sapiens, HT1197, 72 h), 4.3 µM; in experiment [5] (Homo sapiens, DU-4475, 72 h) it was 0.044 µM.

Regarding `COC1CCN(C[C@H]2CC[C@H](Nc3c(C(=O)C4CC4)cnc4ccc(-c5cc(Cl)c(O)c(Cl)c5)cc34)CC2)C1` (stereo partly drawn) [Example 598, cyclopropyl(6-(3,5-dichloro-4-hydroxyphenyl)-4-((trans-4-((3-methoxypyrrolidin-1-yl)methyl)cyclohexyl)amino)quinolin-3-yl)methanone], the IC50 came to 0.0023 µM in experiment [1]; 0.18 µM in experiment [2] (Homo sapiens, T47D, 72 h); 0.13 µM in experiment [3] (Homo sapiens, A549, 72 h); 1 µM in experiment [4] (Homo sapiens, HT1197, 72 h); 0.066 µM in experiment [5] (Homo sapiens, DU-4475, 72 h).

With `CCCC(=O)c1cnc2ccc(-c3cc(F)c(O)c(Cl)c3)cc2c1Nc1ccc(N2CCNCC2)nc1` [Example 623, 1-{6-(3-Chloro-5-fluoro-4-hydroxyphenyl)-4-[6-(piperazin-1-yl)pyridin-3-ylamino]quinolin-3-yl}butan-1-one], the IC50 in experiment [1] stood at 0.011 µM; in experiment [2] (Homo sapiens, T47D, 72 h), 0.085 µM; in experiment [3] (Homo sapiens, A549, 72 h), 0.2 µM; in experiment [4] (Homo sapiens, HT1197, 72 h), 2 µM; in experiment [5] (Homo sapiens, DU-4475, 72 h) it was 0.1 µM.

As for `CN[C@H]1CC[C@H](Nc2c(C(=O)C3CC3)cnc3ccc(-c4cc(F)c(O)c(Cl)c4)cc23)CC1` [Example 523, {6-(3-Chloro-5-fluoro-4-hydroxyphenyl)-4-[trans-4-(methylamino)cyclohexylamino]quinolin-3-yl}(cyclopropyl)methanone], the IC50 in experiment [1] worked out at 0.0024 µM; in experiment [2] (Homo sapiens, T47D, 72 h) it was 0.033 µM; in experiment [3] (Homo sapiens, A549, 72 h), 0.19 µM; in experiment [4] (Homo sapiens, HT1197, 72 h), 1.3 µM; in experiment [5] (Homo sapiens, DU-4475, 72 h), 0.024 µM.

As to `CCCC(=O)c1cnc2ccc(-c3cc(Cl)c(O)c(OC)c3)cc2c1Nc1ccc(N2CCNCC2)nc1` [Example 617, 1-(6-(3-chloro-4-hydroxy-5-methoxyphenyl)-4-(6-(piperazin-1-yl)pyridin-3-ylamino)quinolin-3-yl)butan-1-one], the IC50 was 0.0042 µM in experiment [1]; 0.33 µM in experiment [2] (Homo sapiens, T47D, 72 h); 0.19 µM in experiment [3] (Homo sapiens, A549, 72 h); 1.7 µM in experiment [4] (Homo sapiens, HT1197, 72 h); 0.32 µM in experiment [5] (Homo sapiens, DU-4475, 72 h).

Take `COc1cc(-c2ccc3ncc(C(=O)C4CC4)c(Nc4ccc(C(N)=O)cc4)c3c2)cc(Cl)c1O` [Example 546, 4-(6-(3-chloro-4-hydroxy-5-methoxyphenyl)-3-(cyclopropanecarbonyl)quinolin-4-ylamino)benzamide]: the IC50 in experiment [1] is 0.04 µM; in experiment [2] (Homo sapiens, T47D, 72 h) it was 1.1 µM; in experiment [3] (Homo sapiens, A549, 72 h) it was 1 µM; in experiment [4] (Homo sapiens, HT1197, 72 h), 12 µM; in experiment [5] (Homo sapiens, DU-4475, 72 h), 1 µM.

For the molecule `CCCC(=O)c1cnc2ccc(-c3cc(Cl)c(O)c(Cl)c3)cc2c1Nc1ccc(CN(C)C)cc1` [Example 531, 1-(6-(3,5-dichloro-4-hydroxyphenyl)-4-((4-((dimethylamino)methyl)phenyl)amino)quinolin-3-yl)butan-1-one dihydrochloride], the half-inhibitory concentration (IC50) in experiment [1] (dihydrochloride) was 0.0052 µM; in experiment [2] (72 hours, dihydrochloride), 0.11 µM; in experiment [3] (dihydrochloride), 0.18 µM; in experiment [4] (dihydrochloride), 1.3 µM; in experiment [5] (dihydrochloride), 0.072 µM.

Consider `CN(C)Cc1ccc(Nc2c(C(=O)C3CC3)cnc3cc(F)c(-c4cc(Cl)c(O)c(Cl)c4)cc23)cc1` [Example 547, cyclopropyl(6-(3,5-dichloro-4-hydroxyphenyl)-4-(4-((dimethylamino)methyl)phenylamino)-7-fluoroquinolin-3-yl)methanone], for which the IC50 in experiment [1] stood at 0.02 µM; in experiment [2] (Homo sapiens, T47D, 72 h), 0.41 µM; in experiment [3] (Homo sapiens, A549, 72 h) it was 0.13 µM; in experiment [4] (Homo sapiens, HT1197, 72 h) it was 1.9 µM; in experiment [5] (Homo sapiens, DU-4475, 72 h) it was 0.14 µM.

On to `CCCC(=O)c1cnc2ccc(-c3cc(F)c(O)c(Cl)c3)cc2c1N[C@H]1CC[C@H](CN(C)C)CC1` [Example 597, 1-{6-(3-Chloro-5-fluoro-4-hydroxyphenyl)-4-[trans-4-((dimethylamino)methyl)cyclohexylamino]quinolin-3-yl}butan-1-one], for which the IC50 in experiment [1] was determined as 0.0073 µM; in experiment [2] (Homo sapiens, T47D, 72 h), 0.11 µM; in experiment [3] (Homo sapiens, A549, 72 h), 0.16 µM; in experiment [4] (Homo sapiens, HT1197, 72 h), 1.1 µM; in experiment [5] (Homo sapiens, DU-4475, 72 h) it was 0.083 µM.

Take `CC(C)C(=O)c1cnc2ccc(-c3cc(Cl)c(O)c(Cl)c3)cc2c1N[C@H]1CC[C@H](CN(C)C)CC1` [Example 608, 1-(6-(3,5-dichloro-4-hydroxyphenyl)-4-((1R,4R)-4-((dimethylamino)methyl)cyclohexylamino)quinolin-3-yl)-2-methylpropan-1-one]: the IC50 is 0.0022 µM in experiment [1]; 0.15 µM in experiment [2] (Homo sapiens, T47D, 72 h); 0.25 µM in experiment [3] (Homo sapiens, A549, 72 h); 0.46 µM in experiment [4] (Homo sapiens, HT1197, 72 h); 0.072 µM in experiment [5] (Homo sapiens, DU-4475, 72 h).

Consider `CN[C@H]1CC[C@H](Nc2c(C(C)=O)cnc3ccc(-c4cc(Cl)c(O)c(Cl)c4)cc23)CC1` [Example 558], for which the IC50 in experiment [1] stood at 0.0025 µM; in experiment [2] (Homo sapiens, T47D, 72 h), 0.094 µM; in experiment [3] (Homo sapiens, A549, 72 h) it was 0.32 µM; in experiment [4] (Homo sapiens, HT1197, 72 h), 10 µM; in experiment [5] (Homo sapiens, DU-4475, 72 h) it was 0.043 µM.

As to `NC1CCN(c2ncc(Nc3c(C(=O)C4CC4)cnc4ccc(-c5cc(F)c(O)c(Cl)c5)cc34)cn2)C1` (centres unmarked) [Example 572, (4-(2-(3-aminopyrrolidin-1-yl)pyrimidin-5-ylamino)-6-(3-chloro-5-fluoro-4-hydroxyphenyl)quinolin-3-yl)(cyclopropyl)methanone], the IC50 came to 0.003 µM in experiment [1]; 0.0076 µM in experiment [2] (Homo sapiens, T47D, 72 h); 0.03 µM in experiment [3] (Homo sapiens, A549, 72 h); 0.37 µM in experiment [4] (Homo sapiens, HT1197, 72 h); 0.011 µM in experiment [5] (Homo sapiens, DU-4475, 72 h).

With `CN1CCC(n2cc(Nc3c(C(=O)C4CC4)cnc4ccc(-c5cc(F)c(O)c(Cl)c5)cc34)cn2)CC1` [Example 592, (6-(3-Chloro-5-fluoro-4-hydroxyphenyl)-4-(1-(1-methylpiperidin-4-yl)-1H-pyrazol-4-ylamino)quinolin-3-yl)(cyclopropyl)methanone], the IC50 in experiment [1] was 0.0015 µM; in experiment [2] (Homo sapiens, T47D, 72 h), 0.24 µM; in experiment [3] (Homo sapiens, A549, 72 h), 0.13 µM; in experiment [4] (Homo sapiens, HT1197, 72 h), 2.8 µM; in experiment [5] (Homo sapiens, DU-4475, 72 h), 0.068 µM.

`O=C(c1cnc2ccc(-c3cc(F)c(O)c(Cl)c3)cc2c1N[C@H]1CC[C@H](CN2CCCC2)CC1)C1CC1` [Example 587, (6-(3-chloro-5-fluoro-4-hydroxyphenyl)-4-((trans-4-(pyrrolidin-1-ylmethyl)cyclohexyl)amino)quinolin-3-yl)(cyclopropyl)methanone]: the IC50 in experiment [1] is 0.0032 µM; in experiment [2] (Homo sapiens, T47D, 72 h), 0.11 µM; in experiment [3] (Homo sapiens, A549, 72 h), 0.084 µM; in experiment [4] (Homo sapiens, HT1197, 72 h) it was 0.55 µM; in experiment [5] (Homo sapiens, DU-4475, 72 h), 0.065 µM.
